{
  "source": "patent US5998366A",
  "about": "“Method for ameliorating glutamic acid decarboxylase associated autoimmune disorders” (The Regents of the University of California, priority 1997, dated 1999)",
  "tested_on": "spleen cells of 6-9 week old NOD mice",
  "test": "IFNγ ELISA and ELISA spot of spleen cells challenged with antigen",
  "assay_type": "cell-based",
  "experimental": "In one series of experiments γ interferon (IFNγ) was measured by ELISA in culture supernatants (CSN) of spleen cells of 6-9 week old mice after challenge with GAD or control antigens HEL and MBP. Additionally, the frequency of antigen specific, IFNγ-producing cells was determined by an ELISA spot technique (T. Taguchi, et al., J. Immunol., 145:68-77, 1990). Frequency of antigen-induced, spot forming cells (SFC) among 10^3 spleen cells is represented in FIG. 9(a). Values are the mean+SEM from 5 individual female NOD mice, each tested in triplicate cultures with or without antigen. Results from a single experiment are shown. These are representative of 3 separate experiments.\nIn performing these experiments, freshly isolated spleen cells were cultured with or without antigen as described in Example 4. CSN were taken after 48 h and the concentration of IFNγ was determined by ELISA (Macy, et al., FASEB J., 3003-3009, 1988). IFNγ specific monoclonal antibody (mAb) R4-6A2 (Pharmingen) was used as the capturing reagent and biotinylated mAb XMG 1.2 (Pharmingen, also specific for IFNγ) was used in conjunction with streptavidin-alkaline phosphatase (Zymed) and […] for detection of bound lymphokine. […] Spots were counted visually and the frequency of antigen specific cells was determined from the difference between the number of spots seen with and without antigen.",
  "data": [
    {"substance": "GAD: human GAD65 purified from recombinant bacteria on the basis of a hexahistidine tag", "values": [
      {"measurement": "IFNγ in culture supernatants after antigen challenge", "setting": "48 h, ELISA", "result": "high concentrations of IFNγ"},
      {"measurement": "frequency of antigen-reactive (IFNγ spot forming) T-cells in the spleen", "setting": "ELISA spot", "result": "90-291 cells per 10^5 cells"}
    ]}
  ]
}
